From PubChem BioAssay (NCI)
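Compound exposure: 48 hours, 5 concentrations, 96-well plates. TGI: total growth inhibition.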

Legend:
Experiment in all cases: NCI anticancer screen, dose series, 48 h
LXFL 529 NSCLC = tested on: LXFL 529 NSCLC
DMS 273 small cell lung = tested on: DMS 273 small cell lung
M14 melanoma = tested on: M14 melanoma
HCT-116 colon = tested on: HCT-116 colon
DLD-1 colon = tested on: DLD-1 colon
SF-268 CNS = tested on: SF-268 CNS
LOX IMVI melanoma = tested on: LOX IMVI melanoma
SK-MEL-28 melanoma = tested on: SK-MEL-28 melanoma
SN12C renal = tested on: SN12C renal
EKVX NSCLC = tested on: EKVX NSCLC
UACC-62 melanoma = tested on: UACC-62 melanoma
MDA-MB-231 breast = tested on: MDA-MB-231 breast
HOP-92 NSCLC = tested on: HOP-92 NSCLC
DU-145 prostate = tested on: DU-145 prostate
BT-549 breast = tested on: BT-549 breast
SK-MEL-5 melanoma = tested on: SK-MEL-5 melanoma

CCOC(=O)C1(C#N)C(c2ccccc2)CC(O)(c2ccc([N+](=O)[O-])cc2)C(C(=O)c2ccc([N+](=O)[O-])cc2)C1c1ccccc1 (configuration not stated)
TGI (LXFL 529 NSCLC): > 100 µM | TGI (DMS 273 small cell lung): > 100 µM | TGI (M14 melanoma): > 100 µM | TGI (HCT-116 colon): > 100 µM | TGI (DLD-1 colon): > 100 µM | TGI (SF-268 CNS): > 100 µM | TGI (LOX IMVI melanoma): > 100 µM | TGI (SK-MEL-28 melanoma): > 100 µM | TGI (SN12C renal): > 100 µM | TGI (EKVX NSCLC): > 100 µM | TGI (UACC-62 melanoma): > 100 µM

CC1(C)C=Cc2c(cc3oc4ccc5c(c4c(=O)c3c2O)C=CC(C)(C)O5)O1
TGI (MDA-MB-231 breast): > 100 µM | TGI (HOP-92 NSCLC): > 100 µM | TGI (M14 melanoma): > 100 µM | TGI (HCT-116 colon): > 100 µM | TGI (DU-145 prostate): > 100 µM | TGI (BT-549 breast): > 100 µM | TGI (SF-268 CNS): > 100 µM | TGI (LOX IMVI melanoma): > 100 µM | TGI (SK-MEL-28 melanoma): > 100 µM | TGI (SK-MEL-5 melanoma): > 100 µM | TGI (SN12C renal): > 100 µM | TGI (EKVX NSCLC): > 100 µM | TGI (UACC-62 melanoma): > 100 µM

N#CC1(C#N)NC(c2cccnc2)C(C#N)(C#N)NC1c1cccnc1 (configuration not stated)
TGI (MDA-MB-231 breast): > 100 µM | TGI (HOP-92 NSCLC): > 100 µM | TGI (M14 melanoma): > 100 µM | TGI (HCT-116 colon): > 100 µM | TGI (DU-145 prostate): > 100 µM | TGI (BT-549 breast): > 100 µM | TGI (SF-268 CNS): > 100 µM | TGI (LOX IMVI melanoma): > 100 µM | TGI (SK-MEL-28 melanoma): > 100 µM | TGI (SK-MEL-5 melanoma): > 100 µM | TGI (SN12C renal): > 100 µM | TGI (EKVX NSCLC): > 100 µM | TGI (UACC-62 melanoma): > 100 µM

CC(C)/C(Cl)=N/OC(=O)Nc1cccc(C(F)(F)F)c1
TGI (MDA-MB-231 breast): 17 µM | TGI (HOP-92 NSCLC): 3.33 µM | TGI (M14 melanoma): 13.3 µM | TGI (HCT-116 colon): 24.7 µM | TGI (DU-145 prostate): 34.5 µM | TGI (BT-549 breast): 15.6 µM | TGI (SF-268 CNS): > 64.9 µM | TGI (LOX IMVI melanoma): 6.43 µM | TGI (SK-MEL-28 melanoma): 10.9 µM | TGI (SK-MEL-5 melanoma): 21.3 µM | TGI (SN12C renal): 20.1 µM | TGI (EKVX NSCLC): 7.1 µM | TGI (UACC-62 melanoma): 27.6 µM

CC1C(=NO)C(C)C(c2ccccc2)N(N=O)C1c1ccccc1 (configuration not stated)
TGI (MDA-MB-231 breast): 32.9 µM | TGI (HOP-92 NSCLC): 49.3 µM | TGI (M14 melanoma): 29.5 µM | TGI (HCT-116 colon): 33.3 µM | TGI (DU-145 prostate): 90.8 µM | TGI (BT-549 breast): 89.8 µM | TGI (SF-268 CNS): 35.7 µM | TGI (LOX IMVI melanoma): 29.3 µM | TGI (SK-MEL-28 melanoma): 32.3 µM | TGI (SK-MEL-5 melanoma): 33.1 µM | TGI (SN12C renal): 28.8 µM | TGI (EKVX NSCLC): 81.8 µM | TGI (UACC-62 melanoma): 27.2 µM

CC(C)(Br)C(Br)CCC(=CCBr)CBr (mixture of isomers)
TGI (MDA-MB-231 breast): 26.3 µM | TGI (LXFL 529 NSCLC): 11.6 µM | TGI (DMS 273 small cell lung): 3.51 µM | TGI (HOP-92 NSCLC): 13.3 µM | TGI (M14 melanoma): 4.29 µM | TGI (HCT-116 colon): 4.41 µM | TGI (DU-145 prostate): 22.3 µM | TGI (BT-549 breast): 5.62 µM | TGI (DLD-1 colon): 11.2 µM | TGI (SF-268 CNS): 4.85 µM | TGI (SK-MEL-28 melanoma): 6.86 µM | TGI (SK-MEL-5 melanoma): 12.4 µM | TGI (SN12C renal): 4.29 µM | TGI (EKVX NSCLC): 49.7 µM | TGI (UACC-62 melanoma): 4.4 µM

O=C(NO)c1ccc(OCc2cccc(Cl)c2)cc1
TGI (MDA-MB-231 breast): 43.2 µM | TGI (HOP-92 NSCLC): 51.4 µM | TGI (M14 melanoma): > 45.8 µM | TGI (HCT-116 colon): 14.4 µM | TGI (DU-145 prostate): > 47.3 µM | TGI (BT-549 breast): 48 µM | TGI (SF-268 CNS): 38.2 µM | TGI (LOX IMVI melanoma): > 56.6 µM | TGI (SK-MEL-28 melanoma): 65.1 µM | TGI (SK-MEL-5 melanoma): > 100 µM | TGI (SN12C renal): 55.9 µM | TGI (EKVX NSCLC): 30.2 µM | TGI (UACC-62 melanoma): 21.7 µM

NC(=O)NC(=O)CCC(NS(=O)(=O)c1ccccc1)C(=O)NC(N)=O (configuration not stated)
TGI (MDA-MB-231 breast): > 100 µM | TGI (HOP-92 NSCLC): > 100 µM | TGI (M14 melanoma): > 100 µM | TGI (HCT-116 colon): > 100 µM | TGI (DU-145 prostate): > 100 µM | TGI (BT-549 breast): > 100 µM | TGI (SF-268 CNS): > 100 µM | TGI (LOX IMVI melanoma): > 100 µM | TGI (SK-MEL-28 melanoma): > 100 µM | TGI (SK-MEL-5 melanoma): > 100 µM | TGI (SN12C renal): > 100 µM | TGI (EKVX NSCLC): > 100 µM | TGI (UACC-62 melanoma): > 100 µM

CCOC(=O)C[C@@H](C)[C@]1(C(=O)OC)CCCC1=O
TGI (LXFL 529 NSCLC): > 100 µM | TGI (DMS 273 small cell lung): > 100 µM | TGI (HOP-92 NSCLC): > 100 µM | TGI (M14 melanoma): > 100 µM | TGI (HCT-116 colon): > 62.6 µM | TGI (DLD-1 colon): > 71.3 µM | TGI (SF-268 CNS): > 100 µM | TGI (LOX IMVI melanoma): > 61.5 µM | TGI (SK-MEL-28 melanoma): > 100 µM | TGI (SK-MEL-5 melanoma): > 100 µM | TGI (SN12C renal): > 100 µM | TGI (EKVX NSCLC): > 100 µM | TGI (UACC-62 melanoma): > 100 µM

C=CCOc1ccc(/C(N=Nc2ccc(C)cc2)=N/NC(=O)c2ccccc2)cc1OC
TGI (MDA-MB-231 breast): > 100 µM | TGI (HOP-92 NSCLC): 41.8 µM | TGI (M14 melanoma): 58.3 µM | TGI (HCT-116 colon): 82.6 µM | TGI (DU-145 prostate): > 100 µM | TGI (BT-549 breast): 47.1 µM | TGI (SF-268 CNS): > 100 µM | TGI (LOX IMVI melanoma): 41.5 µM | TGI (SK-MEL-28 melanoma): 51.3 µM | TGI (SK-MEL-5 melanoma): 31.9 µM | TGI (SN12C renal): > 100 µM | TGI (EKVX NSCLC): > 100 µM | TGI (UACC-62 melanoma): 31.6 µM

Cc1nn2c(=O)c([N+](=O)[O-])c(/C=C/c3ccco3)nc2s1
TGI (MDA-MB-231 breast): > 100 µM | TGI (HOP-92 NSCLC): > 100 µM | TGI (M14 melanoma): > 100 µM | TGI (HCT-116 colon): > 100 µM | TGI (DU-145 prostate): > 100 µM | TGI (BT-549 breast): > 100 µM | TGI (SF-268 CNS): > 100 µM | TGI (LOX IMVI melanoma): 50.4 µM | TGI (SK-MEL-28 melanoma): > 100 µM | TGI (SK-MEL-5 melanoma): 90.1 µM | TGI (SN12C renal): > 100 µM | TGI (EKVX NSCLC): 63.7 µM | TGI (UACC-62 melanoma): > 100 µM

COc1cc(C2SCC(=O)N2Cc2ccccc2)cc(OC)c1OC (configuration not stated)
TGI (MDA-MB-231 breast): > 100 µM | TGI (HOP-92 NSCLC): 71.8 µM | TGI (M14 melanoma): > 100 µM | TGI (HCT-116 colon): > 100 µM | TGI (DU-145 prostate): > 100 µM | TGI (BT-549 breast): > 100 µM | TGI (SF-268 CNS): > 100 µM | TGI (LOX IMVI melanoma): > 100 µM | TGI (SK-MEL-28 melanoma): > 100 µM | TGI (SK-MEL-5 melanoma): > 100 µM | TGI (SN12C renal): > 100 µM | TGI (EKVX NSCLC): > 100 µM | TGI (UACC-62 melanoma): > 100 µM

CCCc1cc(=O)oc2c(C=O)c(O)cc(O)c12
TGI (MDA-MB-231 breast): 58.2 µM | TGI (HOP-92 NSCLC): 45.8 µM | TGI (M14 melanoma): 52.7 µM | TGI (HCT-116 colon): 47.2 µM | TGI (DU-145 prostate): 82.2 µM | TGI (BT-549 breast): 77.1 µM | TGI (SF-268 CNS): 76.5 µM | TGI (LOX IMVI melanoma): 40.3 µM | TGI (SK-MEL-28 melanoma): 62.8 µM | TGI (SK-MEL-5 melanoma): 37.8 µM | TGI (SN12C renal): 78.9 µM | TGI (EKVX NSCLC): 56.3 µM | TGI (UACC-62 melanoma): 38.4 µM

Cc1ccccc1N=CN(C)C
TGI (MDA-MB-231 breast): > 100 µM | TGI (HOP-92 NSCLC): > 100 µM | TGI (M14 melanoma): > 100 µM | TGI (HCT-116 colon): > 100 µM | TGI (DU-145 prostate): > 100 µM | TGI (BT-549 breast): > 100 µM | TGI (SF-268 CNS): > 100 µM | TGI (LOX IMVI melanoma): > 100 µM | TGI (SK-MEL-28 melanoma): > 100 µM | TGI (SK-MEL-5 melanoma): 43.6 µM | TGI (SN12C renal): > 100 µM | TGI (EKVX NSCLC): > 100 µM | TGI (UACC-62 melanoma): > 100 µM
